# Test results as given in ChEMBL document CHEMBL1201862, “PubChem BioAssay data set” (2004).
# Calls of active or inactive are those of the source.
# Assays:
# [1] = viability of uninfected HEp-2 cells – cell-based, HTS, cytotoxicity control for RSV inhibitor project, dose response (AID 2410); assay type: functional; details: human respiratory syncytial virus
# Cytochrome P450 2C9 = Cytochrome P450 2C9 (Homo sapiens, UniProt P11712)
# Cytochrome P450 1A2 = target: T1, Cytochrome P450 1A2 (Homo sapiens, UniProt P05177);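 also: PubChem cytochrome P450 panel assay, CYP1A2 panel member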
# T1 sequence (P05177 whole entry): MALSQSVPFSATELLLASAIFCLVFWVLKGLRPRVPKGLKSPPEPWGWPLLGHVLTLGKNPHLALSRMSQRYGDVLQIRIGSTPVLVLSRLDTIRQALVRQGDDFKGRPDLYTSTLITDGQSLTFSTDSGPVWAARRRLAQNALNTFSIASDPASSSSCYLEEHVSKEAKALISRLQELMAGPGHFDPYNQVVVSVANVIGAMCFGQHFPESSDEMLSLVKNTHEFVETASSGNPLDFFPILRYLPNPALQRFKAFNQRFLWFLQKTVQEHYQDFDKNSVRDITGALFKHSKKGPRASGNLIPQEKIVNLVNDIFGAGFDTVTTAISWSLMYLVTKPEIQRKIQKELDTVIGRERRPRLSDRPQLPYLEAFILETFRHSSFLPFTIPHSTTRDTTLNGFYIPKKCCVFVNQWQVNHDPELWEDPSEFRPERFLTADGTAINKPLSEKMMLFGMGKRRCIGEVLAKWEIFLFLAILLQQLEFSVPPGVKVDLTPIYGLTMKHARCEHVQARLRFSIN
# Cytochrome P450 2C19 = Cytochrome P450 2C19 (Homo sapiens, UniProt P33261); assay: Cytochrome panel assay with activity outcomes. Panel member name: p450-cyp2c19 Compounds with AC50 equal or less than 10 uM are considered active; assay type: functional; details: read-out: AC50
# [2] = target: T2, Heat shock factor protein 1 (Mus musculus, UniProt P38532); assay: decrease of HSF1-responsive luciferase luminescence – cell-based, NIH3T3, dose retest, confirmation (AID 2382); assay type: functional;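 also: NIH3T3 fibroblasts with HSF1-driven luciferase reporter stressed by proteasome inhibitor MG132; luminescence from HSF1-driven luciferase expression after 8 hours of MG132 stress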
# T2 sequence (P38532 whole entry): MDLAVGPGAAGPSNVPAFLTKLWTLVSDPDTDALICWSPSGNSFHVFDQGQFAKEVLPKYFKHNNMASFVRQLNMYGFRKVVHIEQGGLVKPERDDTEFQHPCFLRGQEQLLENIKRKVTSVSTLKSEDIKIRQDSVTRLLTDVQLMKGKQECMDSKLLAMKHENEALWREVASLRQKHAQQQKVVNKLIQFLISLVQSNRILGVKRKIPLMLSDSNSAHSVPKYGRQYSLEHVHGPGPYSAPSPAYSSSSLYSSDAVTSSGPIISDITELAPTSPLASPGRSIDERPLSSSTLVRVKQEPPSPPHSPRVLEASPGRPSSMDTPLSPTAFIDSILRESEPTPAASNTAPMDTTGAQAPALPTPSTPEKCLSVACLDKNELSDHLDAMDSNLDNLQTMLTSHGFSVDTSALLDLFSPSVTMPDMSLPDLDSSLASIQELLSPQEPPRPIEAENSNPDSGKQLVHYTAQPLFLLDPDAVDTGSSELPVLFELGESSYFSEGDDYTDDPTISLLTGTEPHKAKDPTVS
# Cytochrome P450 2D6 = Cytochrome P450 2D6 (Homo sapiens, UniProt P10635);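 also: CYP2D6 member of a cytochrome P450 panel assay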
# Cytochrome P450 3A4 = Cytochrome P450 3A4 (Homo sapiens, UniProt P08684);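 also: CYP3A4 tested as one member of a cytochrome P450 panel screen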
# Streptococcus = assay: GAS UMAA2166 growth inhibition – luminescence, BacTiterGlo, counter-screen for streptokinase expression inhibitor project, dose response (AID 1915); assay type: functional, organism-based;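 also: potency for reduction of bacterial viability or growth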
# [3] = tested on: Streptococcus sp. 'group A'; assay: Streptococcus pyogenes SK(-)GAS viability under kanamycin – luminescence, BacTiterGlo, confirmation, counter-screen for streptokinase expression inhibitor project, dose response (AID 1900); assay type: functional, organism-based
# Streptokinase A = target: T3, Streptokinase A (Streptococcus pyogenes serotype M1, UniProt P10520); assay: viability-normalized secreted streptokinase activity reduction – plasminogen activation absorbance, OD405, dose response (AID 1914); assay type: functional, Streptococcus pyogenes M1 GAS;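 also: secreted streptokinase activity via plasminogen activation per viability signal from cell pellet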
# T3 sequence (P10520 whole entry): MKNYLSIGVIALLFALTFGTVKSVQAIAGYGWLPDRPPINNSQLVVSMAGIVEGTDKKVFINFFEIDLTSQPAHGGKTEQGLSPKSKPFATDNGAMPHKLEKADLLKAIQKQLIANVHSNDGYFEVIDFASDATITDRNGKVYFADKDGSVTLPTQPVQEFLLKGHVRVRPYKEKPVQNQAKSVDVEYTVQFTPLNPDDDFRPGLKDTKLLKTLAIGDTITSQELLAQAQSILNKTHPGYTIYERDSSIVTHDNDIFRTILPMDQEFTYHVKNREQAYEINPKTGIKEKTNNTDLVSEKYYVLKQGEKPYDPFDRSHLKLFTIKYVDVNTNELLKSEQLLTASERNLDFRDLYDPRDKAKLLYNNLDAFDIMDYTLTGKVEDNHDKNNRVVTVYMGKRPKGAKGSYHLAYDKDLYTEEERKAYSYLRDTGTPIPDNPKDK
# [4] = Trypanosoma cruzi growth suppression in host cells – NIH3T3 host cells, beta-gal luminescence, confirmation (AID 2044); assay type: functional, cell-based;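 also: intracellular parasites grown in NIH/3T3 mouse fibroblasts as host cells; luminescent beta-galactosidase reporter signal from transgenic T. cruzi replicating inside host cells; inhibitors lower the luminescence signal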
# [5] = NIH3T3 cell viability loss – ATP luminescence, mouse fibroblasts, counter-screen, dose response (AID 2010); assay type: functional, cell-based;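 also: cells exposed to compound for about 90 hours before reading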
# Chain of Cytochrome P450 3A4 (P08684 whole entry): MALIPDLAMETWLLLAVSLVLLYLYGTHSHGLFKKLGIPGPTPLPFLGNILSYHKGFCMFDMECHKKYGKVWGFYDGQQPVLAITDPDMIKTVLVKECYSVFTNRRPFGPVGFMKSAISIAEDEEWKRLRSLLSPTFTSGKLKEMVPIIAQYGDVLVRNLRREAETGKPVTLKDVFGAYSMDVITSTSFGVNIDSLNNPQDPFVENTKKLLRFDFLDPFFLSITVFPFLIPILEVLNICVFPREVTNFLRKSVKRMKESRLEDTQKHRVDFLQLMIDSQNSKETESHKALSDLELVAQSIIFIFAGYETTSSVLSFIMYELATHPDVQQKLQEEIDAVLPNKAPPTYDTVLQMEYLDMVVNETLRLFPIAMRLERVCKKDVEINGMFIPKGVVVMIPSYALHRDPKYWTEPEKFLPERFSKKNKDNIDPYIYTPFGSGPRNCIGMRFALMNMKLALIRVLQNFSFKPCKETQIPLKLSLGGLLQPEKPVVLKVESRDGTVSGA
# Chain of Cytochrome P450 2C19 (P33261 whole entry): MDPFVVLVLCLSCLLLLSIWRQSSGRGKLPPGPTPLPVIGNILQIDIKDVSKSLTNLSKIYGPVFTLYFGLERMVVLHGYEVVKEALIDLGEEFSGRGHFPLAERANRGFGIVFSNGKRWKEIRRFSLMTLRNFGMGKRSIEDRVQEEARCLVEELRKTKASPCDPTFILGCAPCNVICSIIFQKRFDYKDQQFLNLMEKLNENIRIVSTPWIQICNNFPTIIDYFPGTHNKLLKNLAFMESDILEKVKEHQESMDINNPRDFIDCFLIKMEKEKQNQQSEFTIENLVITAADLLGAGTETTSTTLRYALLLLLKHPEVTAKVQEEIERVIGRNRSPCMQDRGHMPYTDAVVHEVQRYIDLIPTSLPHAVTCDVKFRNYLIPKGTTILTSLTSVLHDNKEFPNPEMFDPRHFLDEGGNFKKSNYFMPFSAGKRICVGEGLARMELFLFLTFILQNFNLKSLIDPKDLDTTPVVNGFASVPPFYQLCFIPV
# Chain of Cytochrome P450 2C9 (P11712 whole entry): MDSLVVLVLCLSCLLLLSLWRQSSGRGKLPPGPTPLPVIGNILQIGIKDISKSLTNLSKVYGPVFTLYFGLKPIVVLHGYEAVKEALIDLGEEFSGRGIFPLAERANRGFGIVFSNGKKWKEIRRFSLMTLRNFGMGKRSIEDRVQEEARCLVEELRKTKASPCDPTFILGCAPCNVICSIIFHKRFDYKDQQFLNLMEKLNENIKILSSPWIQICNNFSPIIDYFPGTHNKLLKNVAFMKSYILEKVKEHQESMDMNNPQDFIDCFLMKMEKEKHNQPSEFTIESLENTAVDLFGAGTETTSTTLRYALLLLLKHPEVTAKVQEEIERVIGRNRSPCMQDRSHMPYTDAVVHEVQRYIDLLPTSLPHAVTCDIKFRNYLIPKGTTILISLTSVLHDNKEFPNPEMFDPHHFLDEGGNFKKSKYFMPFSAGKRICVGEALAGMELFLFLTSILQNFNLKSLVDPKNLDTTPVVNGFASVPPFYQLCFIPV
# Chain of Cytochrome P450 2D6 (P10635 whole entry): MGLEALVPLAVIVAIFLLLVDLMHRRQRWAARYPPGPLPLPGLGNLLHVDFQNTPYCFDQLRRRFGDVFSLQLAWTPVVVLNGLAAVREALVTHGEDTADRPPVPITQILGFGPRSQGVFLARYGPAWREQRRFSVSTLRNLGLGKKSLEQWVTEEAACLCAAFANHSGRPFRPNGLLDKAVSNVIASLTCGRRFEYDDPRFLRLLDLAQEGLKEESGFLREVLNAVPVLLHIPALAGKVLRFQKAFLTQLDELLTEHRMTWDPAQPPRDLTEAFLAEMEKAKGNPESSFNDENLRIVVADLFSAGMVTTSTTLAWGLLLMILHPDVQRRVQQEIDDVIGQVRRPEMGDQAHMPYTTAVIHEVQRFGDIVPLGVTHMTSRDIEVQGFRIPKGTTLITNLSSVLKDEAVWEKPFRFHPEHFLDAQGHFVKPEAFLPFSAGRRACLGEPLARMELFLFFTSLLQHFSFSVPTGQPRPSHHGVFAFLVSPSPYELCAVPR
smiles,measurement,setting,value
Cc1cc2cc3c(cc2nc1SCC(=O)N1c2ccccc2CC1C)OCO3 (stereo not drawn),CC50,[1],34 µM (active)
Cc1ccc2nc(-c3ccccc3)c(CN(C)C)c(O)c2c1,AC50,Cytochrome P450 2C9,12.6 µM (inconclusive)
same,AC50,Cytochrome P450 1A2,15.8 µM (inconclusive)
same,AC50,Cytochrome P450 2C19,20 µM (inconclusive)
CCc1nc2ccc(C(=O)O)cc2nc1CC,EC50,[2],6.93 µM (active)
O=C(COC(=O)C1=COCCO1)Nc1ccc2c(c1)OCO2,EC50,[2],> 195 µM (not active)
COC(=O)CCC(=O)Nc1cccc(C(=O)Nc2cccc(Cl)c2)c1,AC50,Cytochrome P450 2D6,22.4 µM (inconclusive)
same,AC50,Cytochrome P450 3A4,0.398 µM (inconclusive)
CC(C)(C)c1ccc(OC(=O)c2cccnc2)cc1,EC50,[2],> 195 µM (not active)
CC1(C)CC(=O)c2cc(OCC(=O)N3CCN(c4ccccc4F)CC3)ccc2O1,EC50,[2],> 195 µM (not active)
CN(C)S(=O)(=O)c1ccc(C(=O)OCCCNC2=NS(=O)(=O)c3ccccc32)cc1,EC50,[2],26 µM (active)
Fc1ccc(Cn2cccc2C2=NC(c3ccccc3)CO2)cc1 (stereo not drawn),EC50,Streptococcus,> 150 µM (not active)
same,EC50,[3],16 µM (active)
same,EC50,Streptokinase A,23.8 µM (active)
CSc1cccc(-c2nnc(NC(=O)c3cccc(N4C(=O)CCC4=O)c3)o2)c1,EC50,Streptococcus,131 µM (active)
same,EC50,[3],4.88 µM (active)
same,EC50,Streptokinase A,> 150 µM (not active)
Cc1c([C@@H](C)[C@H]2NC[C@H](C)C[C@@H]2O)ccc2c1C[C@@H]1[C@H]2CC=C2C[C@@H](O)CC[C@@]21C,AC50,Cytochrome P450 3A4,3.16 µM (inconclusive)
Cc1ccc(C)c(C(=O)CN2C3=NCCCN3c3ccccc32)c1,AC50,Cytochrome P450 3A4,12.6 µM (inconclusive)
same,AC50,Cytochrome P450 2C19,39.8 µM (inconclusive)
O=C(Nc1ccc(/C=C/c2nc3ccccc3o2)cc1)c1c(F)cccc1F,CC50,[1],> 50 µM (active)
CCOC(=O)c1cnn(-c2nc(-c3ccccc3F)cs2)c1C(F)(F)F,EC50,Streptococcus,23.8 µM (active)
same,EC50,[3],17.9 µM (active)
same,EC50,Streptokinase A,34.3 µM (active)
CCN(CC)C(=O)COC(=O)c1ccc(C)c(NC(=O)c2ccco2)c1,EC50,[2],> 195 µM (not active)
O=C(Nc1ccc(-c2csc(Nc3ccccc3)n2)cc1)c1cc([N+](=O)[O-])cc(C(F)(F)F)c1,CC50,[1],14.6 µM (active)
Cc1ccc2nc(NC(=O)c3ccc(NS(=O)(=O)c4cccs4)cc3)sc2c1,CC50,[1],25.1 µM (active)
O=c1c(-c2ccccc2)nc2cnc(N3CCNCC3)nc2n1-c1ccccc1,AC50,Cytochrome P450 3A4,20 µM (inconclusive)
CCCNC(=O)OC[C@@H]1O[C@H](CCO/N=C\c2ccc(C(=O)N3[C@H](c4ccc(C)cc4)[C@@H](C)CC[C@H]3C(=O)OC)cc2)C=C[C@@H]1Oc1ccc(OC)cc1,AC50,Cytochrome P450 3A4,3.16 µM (inconclusive)
same,AC50,Cytochrome P450 2C19,1.26 µM (inconclusive)
COC(=O)c1cc(-c2cccc(OC)c2)c2c(=O)[nH]c(=O)n(C)c2n1,EC50,Streptococcus,11.7 µM (active)
same,EC50,[3],6.29 µM (active)
same,EC50,Streptokinase A,> 150 µM (not active)
COc1ccc(-c2cc(C(F)(F)F)n3ncc(C(=O)N(C)Cc4ccccc4)c3n2)cc1,CC50,[1],32.9 µM (active)
Cc1nc2cnc(Oc3ccccc3)nc2n(CCC#N)c1=O,AC50,Cytochrome P450 3A4,25.1 µM (inconclusive)
same,AC50,Cytochrome P450 1A2,20 µM (inconclusive)
CC(C)Nc1nc(NC(C)C)nc(N(C)N)n1,EC50,Streptococcus,> 150 µM (not active)
same,EC50,[3],32.9 µM (active)
same,EC50,Streptokinase A,> 150 µM (not active)
Ic1ccccc1CN[C@@H]1C2CCN(CC2)[C@H]1C(c1ccccc1)c1ccccc1,AC50,Cytochrome P450 3A4,20 µM (inconclusive)
same,AC50,Cytochrome P450 1A2,12.6 µM (inconclusive)
C1CCC(Nc2nnnn2C2CCCCC2)CC1,EC50,[2],> 195 µM (not active)
Cc1cccc(-c2nnc(NC(=O)c3cccs3)s2)c1,EC50,[2],> 195 µM (not active)
CC(C)c1ccc(NC2(C#N)C(=O)Nc3ccccc32)cc1 (stereo not drawn),EC50,[2],> 195 µM (not active)
O=C(COC(=O)c1ccccc1SCC(=O)N1CCCC1)NC1CCS(=O)(=O)C1 (stereo not drawn),EC50,[2],> 195 µM (not active)
O=C(NCC1CCCO1)c1ccc2c(=O)n(Cc3ccco3)c(SCC(=O)N3CCCC3)nc2c1 (stereo not drawn),AC50,Cytochrome P450 3A4,12.6 µM (inconclusive)
same,AC50,Cytochrome P450 2C19,15.8 µM (inconclusive)
O=C(Nc1ccc(N2CCCC2)c(Cl)c1)c1ccc(Br)o1,EC50,[4],1.63 µM (active)
same,EC50,[5],> 60 µM (not active)
same,CC50,[1],30.6 µM (active)
CNc1oc(-c2ccc(Cl)cc2)nc1C#N,AC50,Cytochrome P450 2C9,8.91 µM (inconclusive)
same,AC50,Cytochrome P450 2D6,22.4 µM (inconclusive)
same,AC50,Cytochrome P450 3A4,14.1 µM (inconclusive)
O=S(=O)(NC(=Nc1ccc(F)cc1F)c1ccc(Cl)cc1)c1ccccc1,AC50,Cytochrome P450 3A4,2.82 µM (inconclusive)
CC1CCCCN1CC(=O)Nc1ccccc1Sc1ccccc1 (stereo not drawn),EC50,[2],> 195 µM (not active)
CCOC(=O)c1c(C)[nH]c(C(=O)N2CCc3cc(OC)c(OC)cc3C2)c1C,CC50,[1],34.8 µM (active)
Cc1ccccc1C(=O)Nc1scc(-c2ccc(Br)cc2)c1C(=O)O,EC50,Streptococcus,7.36 µM (active)
same,EC50,[3],3.46 µM (active)
same,EC50,Streptokinase A,> 150 µM (not active)
CCOc1ccc(N2CSC(=S)N(c3ccc(OCC)cc3)C2)cc1,EC50,[2],> 195 µM (not active)
COc1ccc(Oc2ncc3nc(-c4ccc(OC)cc4)c(=O)n(C)c3n2)cc1,AC50,Cytochrome P450 3A4,3.98 µM (inconclusive)
same,AC50,Cytochrome P450 1A2,3.16 µM (inconclusive)
CCc1ccccc1NC(=O)NNS(=O)(=O)c1cc(C)ccc1C,EC50,Streptococcus,> 150 µM (not active)
same,EC50,[3],> 150 µM (not active)
same,EC50,Streptokinase A,4.21 µM (active)
CC1CCN(S(=O)(=O)c2ccc(C(=O)Nc3nnc(-c4ccccn4)o3)cc2)CC1,EC50,[2],45.5 µM (active)
COc1ccc(Nc2nc(N)nc(CSc3n[nH]c(-c4ccccc4)n3)n2)cc1,AC50,Cytochrome P450 2C9,12.6 µM (inconclusive)
same,AC50,Cytochrome P450 2D6,3.55 µM (inconclusive)
same,AC50,Cytochrome P450 3A4,3.98 µM (inconclusive)
CCCCNc1nc2cccnc2s1,EC50,[2],> 195 µM (not active)
CCOC(=O)C1CCCN(c2nc3ccccc3nc2C(C#N)C(=O)OCCOC)C1 (stereo not drawn),CC50,[1],41.7 µM (active)
C[n+]1c(/C=C/c2ccc(O)c3ncccc23)[se]c2ccccc21,AC50,Cytochrome P450 2C9,6.31 µM (inconclusive)
same,AC50,Cytochrome P450 3A4,3.98 µM (inconclusive)
same,AC50,Cytochrome P450 2C19,3.98 µM (inconclusive)
Cc1nc2ccccc2c(=O)n1NC(=O)c1ccccc1Cl,AC50,Cytochrome P450 3A4,22.4 µM (inconclusive)
same,AC50,Cytochrome P450 1A2,15.8 µM (inconclusive)
C=CC/N=C1\S/C(=C\c2ccc(Cl)cc2)C(=O)N1CC=C,CC50,[1],44.3 µM (active)
O=C(Cc1ccccc1)N/N=C/c1cc(Br)c(Br)o1,AC50,Cytochrome P450 3A4,28.2 µM (inconclusive)
CC(=O)C1C(=O)c2c(cccc2[N+](=O)[O-])/C1=N\c1ccc(S(N)(=O)=O)cc1 (stereo not drawn),EC50,[2],> 195 µM (not active)
O=C(O)c1cccc(NC(=S)N/N=C/c2cccnc2)c1,EC50,[2],> 195 µM (not active)
COc1ccc(CN2/C(=N/C(=O)CCC3CCCC3)SC3CS(=O)(=O)CC32)cc1 (stereo not drawn),EC50,[2],> 195 µM (not active)
O=C(O)c1c(Cl)c(Cl)c(Cl)c(Cl)c1C(=O)Nc1ccc2cn[nH]c2c1,AC50,Cytochrome P450 2D6,3.98 µM (inconclusive)
same,AC50,Cytochrome P450 3A4,3.98 µM (inconclusive)
